Assay results published in patent US9133170B2, “Inhibitors of HCV NS5A” (priority 2011, dated 2015).

Tested on: GT-1a pRLuc H77 1b 75 S/I subgenomic replicon cell line
Experiment: HCV GT-1a subgenomic replicon Renilla luciferase reporter assay
Assay type: cell-based
Settings: Hepatitis C virus, GT1A, Huh-7, 72 h, read-out: GT-1a-IC50
Description: Determination of compounds HCV GT1b inhibitory replicon activity using the replicon luciferase reporter assay
The 2209-23 cell line was developed at Roche by stable transfection of the hepatoma cell line Huh-7 with a GT-1b Con1 subgenomic bicistronic replicon as previously described. Subgenomic replicon cell line was established in cured Huh7 cells, obtained from R. Bartenschlager (J Virol. 2003 March; 77 (5):3007-19) The GT-1a H77 subgenomic replicon vector pRLuc H77 1b 75 S/I, was created by replacing the non structural region of the GT-1b Con1 subgenomic replicon by the one of the H77 strain, except for the first 75 amino acids of the NS3 protein that are from GT-1b Con1 strain. (J Virol. 2001 77:5352-59) The GT-1a pRLuc H77 1b 75 S/I subgenomic replicon cell line was established in cured Huh7 cells, obtained from R. Bartenschlager (J Virol. 2003 March; 77 (5):3007-19).
All the subgenomic replicon cell lines were cultured in Dulbecco's Modified Eagle Medium (DMEM-Glutamax™-I; Invitrogen Cat #10569-010). The medium was supplemented with 10% Fetal Bovine Serum (Invitrogen Cat #10082-147), 1% penicillin/streptomycin (Mediatech Cat # 30-002-CI) and 500 μg/ml of G418 (Mediatech Cat #30-234-CI). Cells were maintained at 37° C. in a humidified 5% CO2 atmosphere.
2209-23 cells were plated at a cell density of 5000 cells per well in 96 well plates (Becton Dickinson, Cat #35 3296). Cells were plated in 90 μl of Dulbecco's Modified Eagle Medium (DMEM-Glutamax™-I), (Invitrogen Cat #10569-010) medium was supplemented with 5% Fetal Bovine Serum (Invitrogen Cat #10082-147), 1% penicillin/streptomycin (Mediatech Cat #30-002-CI). The pRluc H77 1b 75 S/I cells were plated in 96-well plate at 3000 cells/well in DMEM-Glutamax™-I containing 5% FBS and 1% penicillin/streptomycin in 90 μl final volume. Cells were allowed to equilibrate for 24 hours at 37° C. and 5% CO2 at which time compounds were added. Compounds (or medium as a control) were added 24 hours post-plating in 3 fold dilutions at a final DMSO concentration of 1% in 10 ul volume. Renilla luciferase reporter signal was read 72 hours after addition of compounds using the Renilla Luciferase Assay System (Promega, cat #E2820). EC50 values were defined as the compound concentration at which a 50% reduction in the levels of renilla luciferase reporter was observed as compared to control samples in the absence of compound and was determined by non-linear fitting of compound dose-response data. The EC50 was approximated if maximum percentage inhibition was less than 90% and more than 70%.

Q: For `COC(=O)N[C@H]1CCc2cccc3c2N(C1=O)[C@H](C(=O)N1CCC[C@H]1C(=O)Nc1ccc(-c2ccc(-c4cnc([C@@H]5CCCN5C(=O)[C@@H](NC(=O)OC)C(C)C)[nH]4)cc2)cc1)C3` [Compound I-1, {(2S,5S)-2-[(S)-2-(4′-{2-[(S)-1-((S)-2-Methoxycarbonylamino-3-methyl-butyryl)-pyrrolidin-2-yl]-3H-imidazol-4-yl}-biphenyl-4-ylcarbamoyl)-pyrrolidine-1-carbonyl]-4-oxo-1,2,4,5,6,7-hexahydro-azepino[3,2,1-hi]indol-5-yl}-carbamic acid methyl ester], which IC50 is on record?
A: 8.38 nM

Q: For `COC(=O)N[C@H]1CCc2cccc3c2N(C1=O)[C@H](C(=O)N1CCC[C@H]1C(=O)Nc1ccc(-c2ccc(-c4[nH]c([C@@H]5CCCN5C(=O)[C@@H](NC(=O)OC)C(C)C)nc4Cl)cc2)cc1)C3` [Compound I-4, {(2S,5S)-2-[(S)-2-(4′-{5-Chloro-2-[(S)-1-((S)-2-methoxycarbonylamino-3-methyl-butyryl)-pyrrolidin-2-yl]-3H-imidazol-4-yl}-biphenyl-4-ylcarbamoyl)-pyrrolidine-1-carbonyl]-4-oxo-1,2,4,5,6,7-hexahydro-azepino[3,2,1-hi]indol-5-yl}-carbamic acid methyl ester], which IC50 is on record?
A: 1.38 nM

Q: With `COC(=O)N[C@H](C(=O)N1CCC[C@H]1C(=O)N1CCC[C@H]1C(=O)Nc1ccc(-c2ccc(-c3cnc([C@@H]4CCCN4C(=O)[C@@H](NC(=O)OC)C(C)C)[nH]3)cc2)cc1)C(C)C` [Compound I-5, ((S)-1-{(S)-2-[(S)-2-(4′-{2-[(S)-1-((S)-2-Methoxycarbonylamino-3-methyl-butyryl)-pyrrolidin-2-yl]-3H-imidazol-4-yl}-biphenyl-4-ylcarbamoyl)-pyrrolidine-1-carbonyl]-pyrrolidine-1-carbonyl}-2-methyl-propyl)-carbamic acid methyl ester] as the molecule, how does the IC50 read?
A: 4.87 nM

Q: For `COC(=O)N[C@H](C(=O)N1CCC[C@H]1c1ncc(-c2ccc(-c3ccc(NC(=O)[C@@H]4CCCN4C(=O)[C@@H]4CCCN4C(=O)[C@H](NC(=O)OC)c4ccccc4)cc3)cc2)[nH]1)C(C)C` [Compound I-6, [(S)-1-((S)-2-{5-[4′-({(S)-1-[(S)-1-((R)-2-Methoxycarbonylamino-2-phenyl-acetyl)-pyrrolidine-2-carbonyl]-pyrrolidine-2-carbonyl}-amino)-biphenyl-4-yl]-1H-imidazol-2-yl}-pyrrolidine-1-carbonyl)-2-methyl-propyl]-carbamic acid methyl ester], which IC50 is on record?
A: 69.9 nM

Q: For `COC(=O)N[C@H]1CCc2cccc3c2N(C1=O)[C@H](C(=O)N1CCC[C@H]1C(=O)Nc1ccc(-c2ccc(-c4cnc([C@@H]5CC(F)(F)CN5C(=O)[C@@H](NC(=O)OC)C(C)C)[nH]4)cc2)cc1)C3` [Compound I-3, {(2S,5S)-2-[(S)-2-(4′-{2-[(S)-1-((S)-2-Methoxycarbonylamino-3-methyl-butyryl)-4,4-difluoropyrrolidin-2-yl]-3H-imidazol-4-yl}-biphenyl-4-ylcarbamoyl)-pyrrolidine-1-carbonyl]-4-oxo-1,2,4,5,6,7-hexahydro-azepino[3,2,1-hi]indol-5-yl}-carbamic acid methyl ester], which IC50 is on record?
A: 147 nM

Q: For `COC(=O)N[C@H]1CCC(=O)N2CCC[C@@H](C(=O)N3CCC[C@H]3C(=O)Nc3ccc(-c4ccc(-c5cnc([C@@H]6CCCN6C(=O)[C@@H](NC(=O)OC)C(C)C)[nH]5)cc4)cc3)N2C1=O` [Compound I-2, {(4S,7S)-4-[(S)-2-(4′-{2-[(S)-1-((S)-2-Methoxycarbonylamino-3-methyl-butyryl)-pyrrolidin-2-yl]-3H-imidazol-4-yl}-biphenyl-4-ylcarbamoyl)-pyrrolidine-1-carbonyl]-6,10-dioxo-octahydro-pyridazino[1,2-a][1,2]diazepin-7-yl}-carbamic acid methyl ester], which IC50 is on record?
A: 190 nM
